The source of these data is article PMC11411626 (2024).

For test [1], the system named is CAG RNA oligonucleotide (RNA, repeat) GCAGCAGCUUCGGCAGCAGC
The experiment in a line: fluorescence well-plate screening. The note with it: buffer pH 7, 5 μM ligand, 1 equiv. RNA.

The subject of test [2] is CUG RNA motif (RNA, repeat) GGUCGCUGCUGCACGAAAGUGCUGCUGCGACC
The experiment in a line: fluorescence well-plate screening. As to conditions: buffer pH 7, 5 μM ligand, 1 equiv. RNA.

The subject of test [3] is CAG RNA oligonucleotide (RNA, repeat) GCAGCAGCUUCGGCAGCAGC
The experiment in a line: spectrophotometric titration. The note with it: 2a 5 μM, RNA/2a 0–4; SpecFit 1:1 fit.

Where [4] appears, read: no pronounced interaction, small fluorescence change.

For the compound `N=C(N)c1ccc(-c2ccc(-c3ccc(C(=N)N)cc3)o2)cc1`, the binding entry in test [1] (57% quenching) is “yes”.
Turning to `CN(C)CCOc1ccc(/C=C2\Oc3cc(OCCN(C)C)ccc3C2=O)cc1`, the binding result in test [2] (absent or very weak interaction) was “no”. In addition, in test [3], the K result was “(1.4 ± 0.1) × 10^5 M^-1”.
As to `COc1cc(/C=C2\Nc3ccccc3C2=O)ccc1OCCCN(C)C`, the binding entry in test [1] was “no”.
Regarding `O=C1/C(=C/c2c3ccccc3cc3ccccc23)Oc2ccccc21`, the binding entry in test [2] (excitation 450 nm, almost no interaction) is on record as “no”; in test [1] (21% light-up, aggregation prevented titration), “yes”.
`COc1ccc(/C=C2\Oc3cc(OCCN(C)C)ccc3C2=O)cc1`: in test [1] (setting [4]), the binding result was “no”.
As for `COc1ccc(/C=C2\Oc3ccccc3C2=O)cc1`, the binding entry in test [1] is “no”.
As for `CN(C)CCOc1ccc(/C=C2\Oc3cc(O)ccc3C2=O)cc1`, the binding entry in test [1] (setting [4]) is “no”.
